# Measurements as given in publication PMC4357699, “Identification of a second GTP-bound magnesium ion in archaeal initiation factor 2” (Nucleic Acids Research, 2015).
# Assays:
# Assay in all cases: nitrocellulose filter binding of [3H]GDP
# Conditions in all cases: read-out: apparent Kd
# [1] = molecular target: T1, Ss-aIF2 (aIF2 heterotrimer, αβγ) (Saccharolobus solfataricus, UniProt Q980A5, D19A)
# T1 construct: gene eif2g; full heterotrimer of α, β and γ subunits, purified; gamma from pET15b-Ss-aIF2γ; with Translation initiation factor 2 subunit alpha; Translation initiation factor 2 subunit beta
# T1 sequence (Q97W59 whole entry): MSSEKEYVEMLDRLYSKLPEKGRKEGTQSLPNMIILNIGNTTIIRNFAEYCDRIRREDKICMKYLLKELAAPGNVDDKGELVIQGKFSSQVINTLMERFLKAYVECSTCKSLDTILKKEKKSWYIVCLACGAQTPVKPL
# T1 sequence (Q97Z79 whole entry, further chain): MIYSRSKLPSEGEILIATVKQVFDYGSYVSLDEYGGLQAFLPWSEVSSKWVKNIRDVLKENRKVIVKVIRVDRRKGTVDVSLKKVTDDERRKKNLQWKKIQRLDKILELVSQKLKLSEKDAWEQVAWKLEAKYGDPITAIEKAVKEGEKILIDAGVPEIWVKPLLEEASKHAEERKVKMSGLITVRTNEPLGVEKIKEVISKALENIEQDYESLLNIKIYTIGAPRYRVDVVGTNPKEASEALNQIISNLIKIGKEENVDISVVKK
# T1 sequence (Q980A5 whole entry D19A): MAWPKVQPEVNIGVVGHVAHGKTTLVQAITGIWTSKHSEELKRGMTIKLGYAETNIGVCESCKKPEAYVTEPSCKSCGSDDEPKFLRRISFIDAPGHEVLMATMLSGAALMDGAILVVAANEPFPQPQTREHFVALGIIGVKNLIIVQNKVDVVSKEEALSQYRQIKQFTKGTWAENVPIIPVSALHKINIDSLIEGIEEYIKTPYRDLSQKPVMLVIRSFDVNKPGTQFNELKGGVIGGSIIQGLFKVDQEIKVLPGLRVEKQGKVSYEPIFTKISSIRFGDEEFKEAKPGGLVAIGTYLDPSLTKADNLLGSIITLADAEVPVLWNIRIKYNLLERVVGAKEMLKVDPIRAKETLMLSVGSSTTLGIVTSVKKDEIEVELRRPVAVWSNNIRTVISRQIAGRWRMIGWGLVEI
# [2] = molecular target: T2, Ss-aIF2 (aIF2 heterotrimer, αβγ) (Saccharolobus solfataricus, UniProt Q980A5)
# T2 construct: gene eif2g; full heterotrimer of α, β and γ subunits, purified; gamma from pET15b-Ss-aIF2γ; with Translation initiation factor 2 subunit alpha; Translation initiation factor 2 subunit beta
# T2 sequence (Q97Z79 whole entry): as the sequence (Q97Z79 whole entry, further chain) above
# T2 sequence (Q97W59 whole entry, further chain): as the sequence (Q97W59 whole entry) above
# T2 sequence (Q980A5 whole entry): as the sequence (Q980A5 whole entry D19A) above, with A19D counted along it
# [3] = molecular target: T3, Ss-aIF2 (aIF2 heterotrimer, αβγ) (Saccharolobus solfataricus, UniProt Q980A5, H97A)
# T3 construct: gene eif2g; full heterotrimer of α, β and γ subunits, purified; gamma from pET15b-Ss-aIF2γ; with Translation initiation factor 2 subunit alpha; Translation initiation factor 2 subunit beta
# T3 sequence (Q980A5 whole entry H97A): as the sequence (Q980A5 whole entry D19A) above, with A19D, H97A counted along it
# T3 sequence (Q97W59 whole entry, further chain): as the sequence (Q97W59 whole entry) above
# T3 sequence (Q97Z79 whole entry, further chain): as the sequence (Q97Z79 whole entry, further chain) above
compound,measurement,setting,value
Nc1nc2c(ncn2[C@@H]2O[C@H](COP(=O)(O)OP(=O)(O)O)[C@@H](O)[C@H]2O)c(=O)[nH]1 [GDP],Kd,[1],0.24 ± 0.1 µM
same,Kd,[2],0.52 ± 0.12 µM
same,Kd,[3],0.34 ± 0.1 µM
